In experiment [1] the test system is FGFR3^Y367C/+ mouse model of achondroplasia. To be noted: reported in NPL 6; cited from earlier work.
A further experiment has as its target mutant FGFR3G^380R/+. To be noted: at 50 nM; cited from earlier work.
The subject of experiment [2] is TD1-iPS cells and ACH-iPS cells. Description: Drug efficacy in disease iPS cell models, chondrocyte differentiation. In kind it is cell-based, human. The text has this:
iPS cell lines were established from dermal fibroblasts of patients with thanatophoric dysplasia type I (TD1, R248C) and cartilage intangibility (ACH, […]), and dermal fibroblasts of healthy individuals, and induced their differentiation into chondrocytes. Cartilage tissue was formed from healthy iPS cells, whereas a cartilage component was reduced in tissue induced from TD1-iPS cells and tissue induced from ACH-iPS cells (Yamashita et al., Nature, 2014, 513 (7519): 507-11).
Rosuvastatin was used as a positive control. As evaluation items, tissue section staining (Safranin staining), and the expression of mRNAs of COL2A1 and Aggrecan (ACAN) were used as indexes. For testing significance, an unpaired test was conducted. In FIG. 13, * indicates p<0.05.

For experiment [3], the system named is FGFR3 ACH mice. The experiment in a line: Bone extension effect using achondroplasia model mouse (Example 2). The experiment is classed as in vivo. The procedure:
(§1) FGFR3 ACH mice (Naski, M. C. et al., Development, 1998, 125(24): 4977-88; hereinbelow, simply referred to as ACH mice) were used. FVB strain ACH mice were subjected to artificial insemination to produce a large number of F1 hybrid mice. Genomic DNA was then extracted, and the gene type was determined by a PCR method. […] Mice at the age of 43 days were euthanized, and the weight measurement and the bone (femur, tibia, and ulna) length measurement by X-ray photographing were performed. The X-ray photographing was performed using a Faxitron X-Ray DX-50 (AcroBio Corporation), and the measurements were performed with Image J. For testing significance, a Dunnett's multiple comparison test was conducted. In FIGS. 1 to 5, * indicates p<0.05, ** indicates p<0.01, and *** indicates p<0.001.
Subsequently, the femur was isolated from the mice after dosing. The cartilage growth plate was then stained with safranin O, and the length thereof was measured. The average width of the growth plate of ACH mice was 148.3.

The test system of experiment [4] is FGFR3 ACH mice. The experiment in a line: Bone extension effect using achondroplasia model mice, male and female (Example 3). The experiment is classed as in vivo. To be noted: male 1, 3 or 10 mg/kg, female 1, 3 or 6 mg/kg, measured at 43 days old, vs vehicle group. How it is done: as §1
For testing significance, a Dunnett's multiple comparison test was conducted. In FIGS. 6 to 11, * indicates p<0.05, ** indicates p<0.01, *** indicates p<0.001, and **** indicates p<0.0001.

Where [5] appears, read: 1 nM, 10th week of differentiation induction, vs cells free of Compound 1, FIG. 13.

As to `CCN1CCN(c2ccc(Nc3cc(N(C)C(=O)Nc4c(Cl)c(OC)cc(OC)c4Cl)ncn3)cc2)CC1` [NVP-BGJ398], in experiment [1], the “Treatment effect on mouse model of achondroplasia” value is listed as “has a treatment effect”. For the same compound, the Kinase inhibitory effect result at mutant FGFR3G^380R/+ was “has a kinase inhibitory effect”.

`C=CC(=O)N1CC[C@H](n2nc(C#Cc3cc(OC)cc(OC)c3)c3c(N)ncnc32)C1` [Compound 1, 1-[(3S)-3-[4-amino-3-[2-(3,5-dimethoxyphenyl)ethynyl]-1H-pyrazolo[3,4-d]pyrimidin-1-yl]-1-pyrrolidinyl]-2-propen-1-one]: the “Safranin staining of glycosaminoglycans (cartilage extracellular matrix)” value in experiment [2] (1 nM added at each medium change from day 3, analysis at 10th week of differentiation induction, FIG. 12) is “positive safranin staining image was observed”. For the same compound, in experiment [2] (setting [5]), the “Expression of mRNA of ACAN” value is listed as “increased” and the “Expression of mRNA of COL2A1” value is “increased”. Further, in the experiment on FGFR3 ACH mice [3] (ACH mice after dosing, dose not stated, ACH mice without compound 148.3, FIG. 4), the “Average width of the femur growth plate (safranin O staining)” value was 206.4 μm. Besides, the “Bone extension effect (femur, tibia, ulna length; growth plate cartilage thickness)” value in the experiment on FGFR3 ACH mice [3] (ACH mice, 0.1, 1 or 3 mg/kg intraperitoneal once a day, 5 days on 2 days off, age 21 to 42 days, measured at 43 days old, vs vehicle group) is listed as “concentration-dependent bone extension effect was observed”. Moreover, in the experiment on FGFR3 ACH mice [4], the “Bone extension effect (femur, tibia, ulna length)” value was “concentration-dependent bone extension effect was observed”.

The values above are taken from patent US20230097475A1, “TREATMENT FOR CHONDRODYSTROPHIA” (Kyoto University, priority 2020, published 2023).
